Measurements published in ChEMBL document CHEMBL1201862, “PubChem BioAssay data set” (2004).
One block for each molecule: values may come before it. Calls of active or inactive are those of the source.

Legend:
[1] = molecular target: T1, Voltage-gated N-type calcium channel alpha-1B subunit/Amyloid beta A4 precursor protein-binding family A member 1 (Homo sapiens, UniProt Q00975+Q02410); format: protein assay
[2] = molecular target: T1, Voltage-gated N-type calcium channel alpha-1B subunit/Amyloid beta A4 precursor protein-binding family A member 1; format: protein assay; remark: listed apart in the source
[3] = molecular target: T2, Calpain-2 catalytic subunit (Sus scrofa, UniProt P43367); test: pig calpain II inhibitor potency, dose response, biochemical, fluorogenic peptide substrate (AID 1420); format: functional
T2 sequence (P43367 whole entry): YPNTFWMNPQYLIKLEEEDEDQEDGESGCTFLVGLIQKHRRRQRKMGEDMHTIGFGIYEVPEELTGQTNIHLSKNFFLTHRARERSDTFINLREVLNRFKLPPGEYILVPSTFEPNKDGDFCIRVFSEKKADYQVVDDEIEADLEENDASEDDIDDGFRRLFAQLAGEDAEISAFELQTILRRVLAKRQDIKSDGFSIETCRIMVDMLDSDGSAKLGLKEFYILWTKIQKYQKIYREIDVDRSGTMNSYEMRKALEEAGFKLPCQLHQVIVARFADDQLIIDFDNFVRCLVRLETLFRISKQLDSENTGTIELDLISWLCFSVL

Coagulation factor XII = molecular target: T3, Coagulation factor XII (Homo sapiens, UniProt P00748); format: functional;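 note: activated factor XIIa alpha cleaving a fluorogenic AMC peptide substrate; inhibitor potency from loss of enzyme activity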
T3 sequence (P00748 whole entry): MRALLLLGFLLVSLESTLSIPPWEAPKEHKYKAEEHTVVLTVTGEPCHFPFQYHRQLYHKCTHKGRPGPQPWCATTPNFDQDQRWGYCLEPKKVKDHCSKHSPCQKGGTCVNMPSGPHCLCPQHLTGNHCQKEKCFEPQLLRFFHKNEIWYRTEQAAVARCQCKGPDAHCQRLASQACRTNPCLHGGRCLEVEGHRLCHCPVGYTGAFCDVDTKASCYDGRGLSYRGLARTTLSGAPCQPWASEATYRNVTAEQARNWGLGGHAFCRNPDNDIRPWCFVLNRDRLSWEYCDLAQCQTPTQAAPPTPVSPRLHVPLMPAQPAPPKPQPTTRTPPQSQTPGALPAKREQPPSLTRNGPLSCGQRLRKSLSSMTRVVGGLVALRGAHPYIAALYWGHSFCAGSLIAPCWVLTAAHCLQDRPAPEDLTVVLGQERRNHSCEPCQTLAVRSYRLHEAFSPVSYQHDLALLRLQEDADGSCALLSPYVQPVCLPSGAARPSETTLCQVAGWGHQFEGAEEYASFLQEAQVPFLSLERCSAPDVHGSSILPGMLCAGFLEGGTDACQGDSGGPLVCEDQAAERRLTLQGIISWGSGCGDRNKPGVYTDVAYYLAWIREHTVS

[4] = NIH-3T3 fibroblast cytotoxicity, dose response, cytotoxicity control, cell-based, fluorescence, Alamar Blue, secondary assay (AID 2327); format: functional;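 note: NIH-3T3 mouse fibroblasts cultured with fluconazole at 8 µg/mL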
[5] = C. albicans growth with fluconazole, confirmation, fluorescence, retest (AID 2467); format: functional, cell-based
Genome polyprotein = Genome polyprotein (dengue virus type 2, UniProt P29990); test: Dengue-2 NS5 methyltransferase inhibitors, primary screen, biochemical, confirmation dose response (AID 588689); format: functional
Genome polyprotein, sequence (P29990 2492-3391 limits assumed): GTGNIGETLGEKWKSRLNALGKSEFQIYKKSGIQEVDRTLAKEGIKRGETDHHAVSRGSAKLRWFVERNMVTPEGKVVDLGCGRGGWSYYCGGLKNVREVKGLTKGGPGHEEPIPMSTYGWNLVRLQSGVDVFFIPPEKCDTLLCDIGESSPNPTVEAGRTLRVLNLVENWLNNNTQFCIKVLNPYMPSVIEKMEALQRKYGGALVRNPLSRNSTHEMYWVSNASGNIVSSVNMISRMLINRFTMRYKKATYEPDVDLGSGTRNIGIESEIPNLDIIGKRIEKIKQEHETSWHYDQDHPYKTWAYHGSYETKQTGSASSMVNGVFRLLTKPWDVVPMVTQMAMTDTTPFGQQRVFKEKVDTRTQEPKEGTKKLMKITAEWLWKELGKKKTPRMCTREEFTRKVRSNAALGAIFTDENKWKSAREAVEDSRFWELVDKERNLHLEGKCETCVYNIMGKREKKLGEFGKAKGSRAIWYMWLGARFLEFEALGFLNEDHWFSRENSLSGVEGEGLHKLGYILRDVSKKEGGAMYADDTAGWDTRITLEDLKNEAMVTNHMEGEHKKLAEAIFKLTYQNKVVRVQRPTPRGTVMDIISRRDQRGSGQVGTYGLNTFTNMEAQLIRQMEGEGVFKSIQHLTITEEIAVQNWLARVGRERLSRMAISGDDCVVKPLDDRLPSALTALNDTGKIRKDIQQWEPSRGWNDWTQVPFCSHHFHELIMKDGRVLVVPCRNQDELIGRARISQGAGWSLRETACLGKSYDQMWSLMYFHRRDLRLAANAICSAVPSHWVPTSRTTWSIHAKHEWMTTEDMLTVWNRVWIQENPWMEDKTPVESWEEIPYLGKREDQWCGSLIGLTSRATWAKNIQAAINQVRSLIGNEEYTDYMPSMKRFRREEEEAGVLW

[6] = molecular target: FAD-linked sulfhydryl oxidase ALR (Homo sapiens, UniProt P55789); test: inhibitors of human ALR sulfhydryl oxidase, dose response, biochemical, H2O2 detection, luminescence, cherry-pick (AID 493248)
FAD-linked sulfhydryl oxidase ALR, sequence (P55789 whole entry): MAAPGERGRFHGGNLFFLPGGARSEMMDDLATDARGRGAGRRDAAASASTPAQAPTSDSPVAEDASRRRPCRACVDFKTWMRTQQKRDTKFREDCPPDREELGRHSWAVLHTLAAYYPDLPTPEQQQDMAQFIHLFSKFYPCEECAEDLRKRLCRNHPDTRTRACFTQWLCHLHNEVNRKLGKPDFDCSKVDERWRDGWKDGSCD

BJ [7] = test: cells; format: functional, cell-based; settings: Homo sapiens
BJ [8] = test: cytotoxicity toward BJ-TERT-LT-ST fibroblasts, dose response, cell-based, RAS-independent, luminescence (AID 1935); format: functional; settings: Homo sapiens;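 note: BJ fibroblasts immortalized with TERT plus LT and ST oncogenes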
[9] = cytotoxicity toward DRD oncogenic fibroblasts, dose response, cell-based, non-viral oncogenic, luminescence (AID 1934); format: functional; settings: Homo sapiens
BJ [10] = test: cytotoxicity toward BJ-TERT fibroblasts, dose response, cell-based, RAS-independent, luminescence (AID 1933); format: functional; settings: Homo sapiens

T1 sequence (Q00975 whole entry): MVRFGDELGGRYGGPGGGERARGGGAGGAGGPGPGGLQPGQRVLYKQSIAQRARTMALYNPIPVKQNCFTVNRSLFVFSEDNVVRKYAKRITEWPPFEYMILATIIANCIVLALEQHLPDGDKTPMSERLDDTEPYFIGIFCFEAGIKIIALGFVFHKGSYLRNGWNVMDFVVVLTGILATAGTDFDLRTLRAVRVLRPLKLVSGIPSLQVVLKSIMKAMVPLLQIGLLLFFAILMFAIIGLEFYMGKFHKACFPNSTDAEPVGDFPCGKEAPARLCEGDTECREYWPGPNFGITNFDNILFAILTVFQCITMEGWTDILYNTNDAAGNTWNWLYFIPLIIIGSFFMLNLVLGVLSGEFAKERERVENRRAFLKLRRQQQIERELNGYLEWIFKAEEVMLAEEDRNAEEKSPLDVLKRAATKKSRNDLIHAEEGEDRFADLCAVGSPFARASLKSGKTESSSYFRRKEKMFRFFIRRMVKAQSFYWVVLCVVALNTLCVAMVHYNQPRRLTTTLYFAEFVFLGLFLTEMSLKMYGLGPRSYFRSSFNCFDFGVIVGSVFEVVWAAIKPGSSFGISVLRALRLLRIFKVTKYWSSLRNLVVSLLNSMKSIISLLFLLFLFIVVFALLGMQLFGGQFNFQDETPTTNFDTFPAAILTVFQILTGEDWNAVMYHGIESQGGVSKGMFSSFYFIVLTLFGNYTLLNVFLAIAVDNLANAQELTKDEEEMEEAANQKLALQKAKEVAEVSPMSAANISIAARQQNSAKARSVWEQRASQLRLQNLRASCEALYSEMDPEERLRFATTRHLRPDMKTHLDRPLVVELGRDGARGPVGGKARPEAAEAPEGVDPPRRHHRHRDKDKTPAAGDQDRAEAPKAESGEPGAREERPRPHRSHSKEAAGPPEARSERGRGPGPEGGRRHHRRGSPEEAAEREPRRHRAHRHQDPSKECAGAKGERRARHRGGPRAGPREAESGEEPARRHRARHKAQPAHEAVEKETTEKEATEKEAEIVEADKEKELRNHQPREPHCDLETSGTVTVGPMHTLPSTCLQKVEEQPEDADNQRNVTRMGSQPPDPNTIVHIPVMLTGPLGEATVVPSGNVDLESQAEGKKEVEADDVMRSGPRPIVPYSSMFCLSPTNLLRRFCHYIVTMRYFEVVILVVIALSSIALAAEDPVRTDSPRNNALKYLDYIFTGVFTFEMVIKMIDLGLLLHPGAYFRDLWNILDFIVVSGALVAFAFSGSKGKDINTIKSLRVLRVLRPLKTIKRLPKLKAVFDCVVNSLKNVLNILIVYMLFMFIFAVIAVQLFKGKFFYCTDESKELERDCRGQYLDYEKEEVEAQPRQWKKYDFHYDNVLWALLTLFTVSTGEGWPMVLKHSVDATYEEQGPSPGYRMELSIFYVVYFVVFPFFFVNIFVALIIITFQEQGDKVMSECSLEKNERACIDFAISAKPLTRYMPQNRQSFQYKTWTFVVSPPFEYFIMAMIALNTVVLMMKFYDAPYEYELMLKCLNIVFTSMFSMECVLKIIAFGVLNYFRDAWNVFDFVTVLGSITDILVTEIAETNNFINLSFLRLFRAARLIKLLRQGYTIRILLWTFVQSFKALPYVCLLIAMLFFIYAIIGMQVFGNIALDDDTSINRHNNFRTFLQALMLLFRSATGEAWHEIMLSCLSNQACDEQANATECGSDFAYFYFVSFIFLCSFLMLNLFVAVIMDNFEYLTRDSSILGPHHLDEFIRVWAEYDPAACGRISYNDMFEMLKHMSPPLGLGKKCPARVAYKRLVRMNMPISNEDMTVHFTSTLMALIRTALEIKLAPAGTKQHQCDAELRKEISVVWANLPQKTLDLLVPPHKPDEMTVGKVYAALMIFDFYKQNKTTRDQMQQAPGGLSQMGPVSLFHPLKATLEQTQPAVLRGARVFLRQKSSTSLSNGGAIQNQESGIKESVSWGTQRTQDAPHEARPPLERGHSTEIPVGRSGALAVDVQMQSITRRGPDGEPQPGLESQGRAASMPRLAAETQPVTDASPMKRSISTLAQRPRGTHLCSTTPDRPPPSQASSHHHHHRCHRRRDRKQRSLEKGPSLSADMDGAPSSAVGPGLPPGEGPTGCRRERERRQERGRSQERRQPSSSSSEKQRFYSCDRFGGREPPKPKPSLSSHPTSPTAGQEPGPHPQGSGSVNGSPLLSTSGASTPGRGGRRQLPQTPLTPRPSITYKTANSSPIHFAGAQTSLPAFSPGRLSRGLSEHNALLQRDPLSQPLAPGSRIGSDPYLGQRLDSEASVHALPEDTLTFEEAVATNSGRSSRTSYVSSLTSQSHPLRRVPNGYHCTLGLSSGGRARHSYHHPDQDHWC
T1 sequence (Q02410 whole entry): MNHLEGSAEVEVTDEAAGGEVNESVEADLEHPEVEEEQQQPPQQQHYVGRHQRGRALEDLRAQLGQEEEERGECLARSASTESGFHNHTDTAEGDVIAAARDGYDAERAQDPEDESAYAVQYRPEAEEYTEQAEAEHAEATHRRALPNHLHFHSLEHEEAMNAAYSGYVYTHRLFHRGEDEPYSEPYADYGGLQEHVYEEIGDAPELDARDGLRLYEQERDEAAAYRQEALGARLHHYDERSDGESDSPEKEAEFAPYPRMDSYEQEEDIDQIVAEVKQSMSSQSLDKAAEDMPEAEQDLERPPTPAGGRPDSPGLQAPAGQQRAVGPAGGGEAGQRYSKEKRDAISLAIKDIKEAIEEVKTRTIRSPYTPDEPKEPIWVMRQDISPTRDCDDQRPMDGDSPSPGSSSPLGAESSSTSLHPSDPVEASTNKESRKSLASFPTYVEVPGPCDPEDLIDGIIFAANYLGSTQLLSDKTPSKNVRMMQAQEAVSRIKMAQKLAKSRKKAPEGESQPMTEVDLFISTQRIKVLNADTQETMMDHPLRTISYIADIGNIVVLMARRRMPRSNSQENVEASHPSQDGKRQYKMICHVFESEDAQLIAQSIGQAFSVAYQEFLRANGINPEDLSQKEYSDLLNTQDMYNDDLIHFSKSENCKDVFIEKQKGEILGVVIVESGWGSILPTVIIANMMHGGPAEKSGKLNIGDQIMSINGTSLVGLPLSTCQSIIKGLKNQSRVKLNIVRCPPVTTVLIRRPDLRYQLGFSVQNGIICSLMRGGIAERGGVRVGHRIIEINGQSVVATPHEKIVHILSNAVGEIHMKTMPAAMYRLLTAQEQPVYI

SMILES: O=C(CCN1C(=O)/C(=C/c2ccccc2F)SC1=S)NC1C=CS(=O)(=O)C1 (centres undefined)
IC50 [1]: > 50 µM (inactive)
IC50 [2]: 2.87 µM (active)

SMILES: COc1ccc(S(=O)(=O)N2CCCCC2)cc1NC(=O)CN(C)C1CCCCC1
IC50 [3]: 10.8 µM (not active)
IC50 (Coagulation factor XII): > 50 µM (inactive)

SMILES: CN(C)C(=O)c1cn(-c2ccccc2)nc1-c1cccs1
EC50 [4]: 24 µM (inconclusive)
EC50 [5]: 7.34 µM (active)

SMILES: CCC(=O)c1ccc(Oc2ccc(C(=O)c3ccc(C)cc3)cc2[N+](=O)[O-])cc1
EC50 (BJ [7]): > 150 µM (not active)
EC50 (BJ [8]): > 150 µM (not active)
EC50 [9]: > 150 µM (not active)
EC50 (BJ [10]): > 150 µM (not active)

The remaining lines, values ahead:

IC50 (Genome polyprotein): 22.3 µM (active)
AC50 [6]: 2.11 µM (active)
SMILES: Cc1ccc(NC(=O)c2cccc(C(=O)Nc3ccc(C)cc3C(=O)O)c2)c(C(=O)O)c1

IC50 [3]: 2.84 µM (not active)
SMILES: Cn1c(NCc2ccco2)nc2c1c(=O)n(Cc1ccc(Br)cc1)c(=O)n2C

IC50 [3]: 5.14 µM (not active)
SMILES: NC(=O)c1ccc(-n2nnnc2SCC(=O)Nc2ccccc2-c2ccccc2)cc1
